In PubChem BioAssay AID1845199 (Molecular Pharmacology Branch, DTP, NCI, 2023):

Tested on: 556581-035-R-J1 tumor spheroid viability, % test/control
Assay: Anticancer human tumor 556581-035-R-J1 patient-derived ovarian carcinoma cell line growth inhibition
Details: spheroids with HUVEC and MSC; for IC50: curve of first compound; for viability, T/C: stronger effect = lower value
Procedure, shortened: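 Complex tumor spheroids combined malignant cells with endothelial cells and mesenchymal stem cells. DNA-damaging drugs and DNA repair inhibitors were tested alone and in combination, at half-log dilutions down from clinical Cmax (top 10 microM if Cmax unknown), 0.25% DMSO final.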

[1] = second compound 30 pM, first compound 0.00949 µM
[2] = second compound 30 pM, first compound 0.03 µM
[3] = second compound 30 pM, first compound 0.0949 µM
[4] = second compound 30 pM, first compound 0.3 µM
[5] = second compound 30 pM, first compound 0.949 µM
[6] = second compound 30 pM, first compound 3 µM
[7] = second compound 94.9 pM, first compound 0.00949 µM
[8] = second compound 94.9 pM, first compound 0.03 µM
[9] = second compound 94.9 pM, first compound 0.0949 µM
[10] = second compound 94.9 pM, first compound 0.3 µM
[11] = second compound 94.9 pM, first compound 0.949 µM
[12] = second compound 94.9 pM, first compound 3 µM
[13] = second compound 0.0003 µM, first compound 0.00949 µM
[14] = second compound 0.0003 µM, first compound 0.03 µM
[15] = second compound 0.0003 µM, first compound 0.0949 µM
[16] = second compound 0.0003 µM, first compound 0.3 µM
[17] = second compound 0.0003 µM, first compound 0.949 µM
[18] = second compound 0.0003 µM, first compound 3 µM
[19] = second compound 0.000949 µM, first compound 0.00949 µM
[20] = second compound 0.000949 µM, first compound 0.03 µM
[21] = second compound 0.000949 µM, first compound 0.0949 µM
[22] = second compound 0.000949 µM, first compound 0.3 µM
[23] = second compound 0.000949 µM, first compound 0.949 µM
[24] = second compound 0.000949 µM, first compound 3 µM
[25] = second compound 0.003 µM, first compound 0.00949 µM
[26] = second compound 0.003 µM, first compound 0.03 µM
[27] = second compound 0.003 µM, first compound 0.0949 µM
[28] = second compound 0.003 µM, first compound 0.3 µM
[29] = second compound 0.003 µM, first compound 0.949 µM
[30] = second compound 0.003 µM, first compound 3 µM
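Also: spheroids exposed to compounds for 7 days before viability read.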

| Compound | IC50 (second compound 30 pM) | IC50 (second compound 94.9 pM) | IC50 (second compound 0.0003 µM) | IC50 (second compound 0.000949 µM) | IC50 (second compound 0.003 µM) | viability, T/C [3] | viability, T/C [4] | viability, T/C [5] | viability, T/C [6] | viability, T/C [9] | viability, T/C [10] | viability, T/C [11] | viability, T/C [12] | viability, T/C [15] | viability, T/C [16] | viability, T/C [17] | viability, T/C [18] | viability, T/C [21] | viability, T/C [22] | viability, T/C [23] | further results |
| --- | --- | --- | --- | --- | --- | --- | --- | --- | --- | --- | --- | --- | --- | --- | --- | --- | --- | --- | --- | --- | --- |
| CNCc1ccc(-c2cc(-c3nc(-c4ccc(S(=O)(=O)C(C)C)cc4)cnc3N)on2)cc1 + COc1cc2c(cc1O)CCNC21CSC2c3c(OC(C)=O)c(C)c4c(c3C(COC1=O)N1C(O)C3Cc5cc(C)c(OC)c(O)c5C(C21)N3C)OCO4 | 1610 nM | 1240 nM | 725 nM | < 9.49 nM | < 9.49 nM | 108% | 108% | 69.4% | 27.1% | 105% | 96.1% | 61% | 13.6% | 107% | 94.3% | 36.5% | 11% | 25.6% | 9.62% | 2.92% | viability, T/C [1]: 99.4%; viability, T/C [2]: 108%; viability, T/C [7]: 105%; viability, T/C [8]: 102%; viability, T/C [13]: 94.4%; viability, T/C [14]: 97.1%; viability, T/C [19]: 28.1%; viability, T/C [20]: 38.3%; viability, T/C [24]: 0.33%; viability, T/C [25]: 0.74%; viability, T/C [26]: 0.64%; viability, T/C [27]: 0.49%; viability, T/C [28]: 0.47%; viability, T/C [29]: 0.42%; viability, T/C [30]: 0.33% |
| Cc1sc2c(c1C)C(c1ccc(Cl)cc1)=NC(CC(=O)Nc1ccc(O)cc1)c1nnc(C)n1-2 (stereo not given) + COc1cc2c(cc1O)CCNC21CSC2c3c(OC(C)=O)c(C)c4c(c3C(COC1=O)N1C(O)C3Cc5cc(C)c(OC)c(O)c5C(C21)N3C)OCO4 | > 3000 nM | > 3000 nM | 782 nM | < 9.49 nM | < 9.49 nM | 83.8% | 80.1% | 72.1% | 63.5% | 87.4% | 75.8% | 71% | 54.9% | 80.3% | 64.4% | 47.4% | 35.4% | 15.9% | 5.84% | 1.81% | viability, T/C [1]: 107%; viability, T/C [2]: 101%; viability, T/C [7]: 112%; viability, T/C [8]: 102%; viability, T/C [13]: 90.1%; viability, T/C [14]: 88.2%; viability, T/C [19]: 21.7%; viability, T/C [20]: 18.8%; viability, T/C [24]: 0.31%; viability, T/C [25]: 0.52%; viability, T/C [26]: 0.55%; viability, T/C [27]: 0.44%; viability, T/C [28]: 0.36%; viability, T/C [29]: 0.97%; viability, T/C [30]: 1.24% |
| Cn1ncnc1[C@H]1c2n[nH]c(=O)c3cc(F)cc(c23)N[C@@H]1c1ccc(F)cc1 + COc1cc2c(cc1O)CCNC21CSC2c3c(OC(C)=O)c(C)c4c(c3C(COC1=O)N1C(O)C3Cc5cc(C)c(OC)c(O)c5C(C21)N3C)OCO4 | > 3000 nM | > 3000 nM | 2230 nM | < 9.49 nM | < 9.49 nM | 93.5% | 86.7% | 74.5% | 58.7% | 89.5% | 84.9% | 69.7% | 51.7% | 84.1% | 79.1% | 68.7% | 43.4% | 31.8% | 28.1% | 7.63% | viability, T/C [1]: 100%; viability, T/C [2]: 96.7%; viability, T/C [7]: 99.7%; viability, T/C [8]: 97.7%; viability, T/C [13]: 85.6%; viability, T/C [14]: 91.8%; viability, T/C [19]: 39.6%; viability, T/C [20]: 33.9%; viability, T/C [24]: 1.54%; viability, T/C [25]: 0.96%; viability, T/C [26]: 0.99%; viability, T/C [27]: 0.97%; viability, T/C [28]: 1.34%; viability, T/C [29]: 1.27%; viability, T/C [30]: 1.68% |
| O=C(c1cc(Cc2n[nH]c(=O)c3ccccc23)ccc1F)N1CCN(C(=O)C2CC2)CC1 + COc1cc2c(cc1O)CCNC21CSC2c3c(OC(C)=O)c(C)c4c(c3C(COC1=O)N1C(O)C3Cc5cc(C)c(OC)c(O)c5C(C21)N3C)OCO4 | > 30000 nM | > 30000 nM | > 30000 nM | < 94.9 nM | < 94.9 nM | 104% | 105% | 103% | 93.7% | 98.1% | 103% | 96.2% | 90% | 89.5% | 88.7% | 88.6% | 87.2% | 35% | 27.9% | 27.9% | viability, T/C (second compound 30 pM, first compound 9.49 µM): 79.7%; viability, T/C (second compound 30 pM, first compound 30 µM): 63.5%; viability, T/C (second compound 94.9 pM, first compound 9.49 µM): 75.6%; viability, T/C (second compound 94.9 pM, first compound 30 µM): 63%; viability, T/C (second compound 0.0003 µM, first compound 9.49 µM): 66.8%; viability, T/C (second compound 0.0003 µM, first compound 30 µM): 50.1%; viability, T/C [24]: 23.4%; viability, T/C (second compound 0.000949 µM, first compound 9.49 µM): 7.48%; viability, T/C (second compound 0.000949 µM, first compound 30 µM): 1.51%; viability, T/C [27]: 0.86%; viability, T/C [28]: 0.88%; viability, T/C [29]: 0.88%; viability, T/C [30]: 1.14%; viability, T/C (second compound 0.003 µM, first compound 9.49 µM): 1.42%; viability, T/C (second compound 0.003 µM, first compound 30 µM): 2.1% |
